In patent US20220024921A1, “1,3,4-OXADIAZOLONE COMPOUND AND PHARMACEUTICAL” (NIPPON SHINYAKU CO., LTD., priority 2018, published 2022):
Counter-ions that a name gives are not always drawn.

How the values were obtained:
[1] = target: PIM1 transgenic cells (Ba/F3) (Homo sapiens, UniProt P11309); experiment: Proliferation inhibitory effect on PIM1 transgenic cells; type: cell-based, mouse; conditions: proliferation inhibition, 72 hours, Cell Counting Kit-8, read-out: PIM1 IC50
Text: Human PIM1, 2, and 3 genes were inserted into the multi-cloning sites of retrovirus expression vectors pMYs-IRES-GFP, respectively, to prepare gene transfer vectors. Then, each gene transfer vector was introduced into packaging cells PLAT-E derived from a human fetal kidney cell line in the logarithmic growth phase, using a transfection reagent (FuGENE6, Promega Corporation). Since the culture supernatant of PLAT-E after gene transfer contained virus particles for gene transfer, the culture supernatant was collected and used as a medium for gene transfer. The medium for gene transfer was added to a plate coated with RetroNectin, and the plate was incubated to attach the virus particles to the plate. Then, a mouse pro-B cell line Ba/F3 in the logarithmic growth phase was seeded on the plate and infected with the virus to prepare PIM1, 2, or 3 transgenic cells that proliferate in a PIM 1, 2, or 3-dependent manner. The expression of PIM1, 2, or 3 protein in each cell was confirmed by Western blotting.
Each test substance was prepared to 10 mM with dimethylsulfoxide (DMSO), and diluted with DMSO so as to have concentrations of 3000, 1000, 300, 100, 30, 10, 3, and 1 μM. Moreover, each dilution was further diluted 10-fold with distilled water to prepare a test substance solution.
PIM1, 2, 3-expressing cells were seeded on a 96-well plate, and each test substance solution prepared the next day was added such that final concentrations were 10000, 3000, 1000, 300, 100, 30, 10, 3, and 1 nM. 72 hours after the addition, 10 μL of Cell Counting Kit-8 (DOJINDO LABORATORIES) was added to each well. After incubation for 1 to 4 hours, absorbance OD450 at 450 nm was measured. In addition, absorption OD650 at 650 nm as a reference wavelength was measured.
OD450-OD650 for each condition was calculated, and then the inhibition rates when OD450-OD650 of negative control (DMSO only) and OD450-OD650 of Blank (without cells) were set to 0% and 100%, respectively, were calculated. Then, non-linear regression analysis was performed for logarithmic dose and inhibition rate using a two-parameter logistic model to estimate IC50 values.

[2] = target: T1, PIM1 serine/threonine kinase (Homo sapiens, UniProt P11309); experiment: PIM1 serine/threonine kinase inhibitory effect; type: biochemical; conditions: PIM1 serine/threonine kinase activity; ATP 40 μM; 30° C., 30 minutes
T1 construct: purchased Carna Bioscience, Inc
Procedure: Each test substance was prepared to 10 mM with dimethylsulfoxide (DMSO), and further diluted with DMSO so as to have concentrations of 1000, 300, 100, 30, 10, 3, 1, 0.3, 0.1, 0.03, 0.01, and 0.001 μM. Moreover, each dilution was further diluted 33.3-fold with an assay buffer to prepare a test substance solution. The composition of the assay buffer was 50 mM HEPES (pH 7.0), 0.02% NaN3, 0.01% Bovine Serum Albumin, 0.1 mM Orthovanadate, 1 mM Dithiothreitol, and 5 mM MgCl2.
5 μL of each test substance solution was added to 384-well plates (n=2), and then 2.5 μL of a substrate solution (substrate 3-biotin (Cisbio Bioassays SAS), final concentration in the reaction solution: 0.5 μM) and 2.5 μL of an ATP solution (in the cases of PIM1, 2, 3, the final concentrations in the reaction solutions were 40, 2, and 10 μM, respectively) were added, 5 μL of each of PIM1, 2, 3 serine/threonine kinase solutions (Carna Bioscience, Inc., the final concentrations in the reaction solutions were 0.15, 1.6, and 0.25 μg/ml, respectively) was finally added, and the mixture was reacted at 30° C. for 30 minutes. The test substance concentrations in the reaction solutions are 10000, 3000, 1000, 300, 100, 30, 10, 3, 1, 0.3, 0.1, and 0.01 nM.
Thereafter, 15 μL of each detection solution (62.5 nM Streptavidin-XL665 (Cisbio Bioassays SAS), […] STK antibody-Cryptate (Cisbio Bioassays SAS), 50 mM HEPES (pH 7.0), 0.8 M KF, 0.1% Bovine Serum Albumin, 20 mM ethylenediaminetetraacetic acid) was added to each well. After stirring, the mixture was reacted at 30° C. for 1 hour. Absorbance (OD620, OD665) at 620 and 665 nm was measured with a microplate reader (SpectraMax M5e, Molecular Devices, LLC).
Non-linear regression analysis was performed by an SAS system (SAS Institute Inc.) using the ratio (OD665/OD620) of the measured absorbance to calculate a test substance concentration (IC50) that inhibits PIM1 serine/threonine kinase activity by 50%.

Chain of PIM1 transgenic cells (Ba/F3) (P11309 whole entry, stated change not applied): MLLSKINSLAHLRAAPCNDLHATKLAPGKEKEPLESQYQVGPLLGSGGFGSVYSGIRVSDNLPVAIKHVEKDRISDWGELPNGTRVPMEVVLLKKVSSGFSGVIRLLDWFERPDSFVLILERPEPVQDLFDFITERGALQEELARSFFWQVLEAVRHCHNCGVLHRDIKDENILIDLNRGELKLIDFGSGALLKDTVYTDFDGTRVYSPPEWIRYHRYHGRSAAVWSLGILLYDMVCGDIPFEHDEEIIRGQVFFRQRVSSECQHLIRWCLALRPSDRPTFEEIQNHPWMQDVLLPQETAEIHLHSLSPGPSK
T1 sequence (P11309 whole entry): as the sequence (P11309 whole entry, stated change not applied) above

| GI50 [1] [nM] | IC50 [2] [nM] | SMILES |
| --- | --- | --- |
| 2400 | 53 | O=c1[nH]nc(-c2ccc(C(F)(F)F)c(N3CCC4(CC3)CNC4)c2)o1 [Example 16, 5-[3-(2,7-diazaspiro[3.5]nonan-7-yl)-4-(trifluoromethyl)phenyl]-1,3,4-oxadiazol-2(3H)-one hydrochloride] |
| 37 | 3.3 | C[C@H](Nc1cc(-c2n[nH]c(=O)o2)ccc1Cl)[C@@H]1C[C@H](N)C1(C)C [Example 158, 5-[3-({(1S)-1-[(1R,3S)-3-amino-2,2-dimethylcyclobutyl]ethyl}amino)-4-chlorophenyl]-1,3,4-oxadiazol-2(3H)-one hydrochloride] |
| 160 | 11 | C[C@H](Nc1cc(-c2n[nH]c(=O)o2)ccc1C(F)(F)F)[C@@H]1CCC[C@H](N)C1 [Example 191, 5-[3-({(1S)-1-[(1R,3S)-3-aminocyclohexyl]ethyl}amino)-4-(trifluoromethyl)phenyl]-1,3,4-oxadiazol-2(3H)-one hydrochloride] |
| 210 | 6.6 | CC1CN(C(C)C2CCC(N)CC2)c2cc(-c3n[nH]c(=O)o3)cc(F)c2O1 [Example 252, 5-[(2S)-4-{(1S)-1-[(1r,4S)-4-aminocyclohexyl]ethyl}-8-fluoro-2-methyl-3,4-dihydro-2H-1,4-benzoxazin-6-yl]-1,3,4-oxadiazol-2(3H)-one hydrochloride] |
| 480 | 28 | O=c1[nH]nc(-c2ccc(C(F)(F)F)c(NCC3(F)CCCNC3)c2)o1 (stereo not drawn) [Example 109, 5-[3-{[(3-fluoropiperidin-3-yl)methyl]amino}-4-(trifluoromethyl)phenyl]-1,3,4-oxadiazol-2(3H)-one hydrochloride] |
| 1200 | 4.4 | O=c1[nH]nc(-c2ccc(C(F)(F)F)c(NCC3CCNCC3)c2)o1 [Example 48, 5-[3-{[(piperidin-4-yl)methyl]amino}-4-(trifluoromethyl)phenyl]-1,3,4-oxadiazol-2(3H)-one hydrochloride] |
| 120 | 2.8 | C[C@@H]([C@H]1CC[C@H](N)CC1)N1CCOc2ccc(-c3n[nH]c(=O)o3)cc21 [Example 247, 5-(4-{(1S)-1-[(1r,4S)-4-aminocyclohexyl]ethyl}-3,4-dihydro-2H-1,4-benzoxazin-6-yl)-1,3,4-oxadiazol-2(3H)-one] |
| 100 | 8.5 | C[C@H](Nc1cc(-c2n[nH]c(=O)o2)ccc1C(F)(F)F)[C@@H]1CC[C@H](N)C1 [Example 200, 5-[3-({(1S)-1-[(1R,3S)-3-aminocyclopentyl]ethyl}amino)-4-(trifluoromethyl)phenyl]-1,3,4-oxadiazol-2(3H)-one hydrochloride] |
| 57 | 4.1 | O=c1[nH]nc(-c2ccc(C(F)(F)F)c(N[C@@H](C(F)F)C3(F)CCNCC3)c2)o1 [Example 140, 5-[3-{[(1R)-2,2-difluoro-1-(4-fluoropiperidin-4-yl)ethyl]amino}-4-(trifluoromethyl)phenyl]-1,3,4-oxadiazol-2(3H)-one hydrochloride] |
| 17 | 1.8 | C[C@H](Nc1cc(-c2n[nH]c(=O)o2)cc(F)c1OC(F)(F)F)[C@H]1CC[C@H](N)CC1 [Example 170, 5-[3-({(1S)-1-[(1r,4S)-4-aminocyclohexyl]ethyl}amino)-5-fluoro-4-(trifluoromethoxy)phenyl]-1,3,4-oxadiazol-2(3H)-one hydrochloride] |
| 650 | 7.7 | O=c1[nH]nc(-c2ccc(Br)c(OCC3CCNCC3)c2)o1 [Example 235, 5-{4-bromo-3-[(piperidin-4-yl)methoxy]phenyl}-1,3,4-oxadiazol-2(3H)-one] |
| 910 | 12 | O=c1[nH]nc(-c2ccc(C(F)(F)F)c(CCC3CCNCC3)c2)o1 [Example 26, 5-{3-[2-(piperidin-4-yl)ethyl]-4-(trifluoromethyl)phenyl}-1,3,4-oxadiazol-2(3H)-one hydrochloride] |
| 57 | 3.5 | CN[C@H]1CC[C@H]([C@H](C)Nc2cc(-c3n[nH]c(=O)o3)cc(F)c2OC(F)(F)F)CC1 [Example 204, 5-[3-fluoro-5-({(1S)-1-[(1r,4S)-4-(methylamino)cyclohexyl]ethyl}amino)-4-(trifluoromethoxy)phenyl]-1,3,4-oxadiazol-2(3H)-one hydrochloride] |
| 23 | 2 | C[C@H](Nc1cc(-c2n[nH]c(=O)o2)cc(Cl)c1Cl)[C@H]1C[C@@H](N)C1 [Example 179, 5-[3-({(1S)-1-[(1s,3R)-3-aminocyclobutyl]ethyl}amino)-4,5-dichlorophenyl]-1,3,4-oxadiazol-2(3H)-one dihydrochloride] |
| 110 | 8.7 | C[C@H](Nc1cc(-c2n[nH]c(=O)o2)ccc1C(F)(F)F)C12CCC(N)(CC1)C2 [Example 187, 5-[3-{[(1S)-1-(4-aminobicyclo[2.2.1]heptan-1-yl)ethyl]amino}-4-(trifluoromethyl)phenyl]-1,3,4-oxadiazol-2(3H)-one hydrochloride] |
| 87 | 1.9 | N[C@H]1CC[C@H](COc2cc(-c3n[nH]c(=O)o3)ccc2C(F)(F)F)CC1 [Example 240, 5-[3-{[(1r,4r)-4-aminocyclohexyl]methoxy}-4-(trifluoromethyl)phenyl]-1,3,4-oxadiazol-2(3H)-one] |
| 79 | 2 | Cc1c(Cl)cc(-c2n[nH]c(=O)o2)cc1N[C@@H](C)C1CCNCC1 [Example 98, 5-(3-chloro-4-methyl-5-{[(1S)-1-(piperidin-4-yl)ethyl]amino}phenyl)-1,3,4-oxadiazol-2(3H)-one dihydrochloride] |
| 250 | 10 | C[C@@H](C1CCNCC1)N1CCOc2c(F)cc(-c3n[nH]c(=O)o3)cc21 [Example 248, 5-{8-fluoro-4-[(1S)-1-(piperidin-4-yl)ethyl]-3,4-dihydro-2H-1,4-benzoxazin-6-yl}-1,3,4-oxadiazol-2(3H)-one] |
| 120 | 5 | CC(C)Oc1c(Cl)cc(-c2n[nH]c(=O)o2)cc1N[C@@H](C)C1CCNCC1 [Example 103, 5-(3-chloro-5-{[(1S)-1-(piperidin-4-yl)ethyl]amino}-4-[(propan-2-yl)oxy]phenyl)-1,3,4-oxadiazol-2(3H)-one hydrochloride] |
| 71 | 3 | CN[C@H]1CC[C@H](CNc2cc(-c3n[nH]c(=O)o3)ccc2C(F)(F)F)CC1 [Example 131, 5-[3-({[(1r,4r)-4-(methylamino)cyclohexyl]methyl}amino)-4-(trifluoromethyl)phenyl]-1,3,4-oxadiazol-2(3H)-one hydrochloride] |
| 330 | 13 | NCCC1CCCN(c2cc(-c3n[nH]c(=O)o3)ccc2C(F)(F)F)C1 (stereo not drawn) [Example 11, 5-{3-[3-(2-aminoethyl)piperidin-1-yl]-4-(trifluoromethyl)phenyl}-1,3,4-oxadiazol-2(3H)-one hydrochloride] |
